According to US7553496B2, “VEGF-A as an inhibitor of angiogenesis and methods of using same” (University of Kentucky Research Foundation, priority 2004, dated 2009):
“Also recorded” adds a separate entry of the source.

Key:
laser-induced CNV = assay: Laser-induced choroidal neovascularization (CNV) volume, confocal microscopy; assay type: in vivo, mouse; conditions: for effect on VEGF-A-induced suppression of CNV: given with VEGF-A164 after laser injury
Ccl-2 = Ccl-2 levels in RPE and choroid after laser injury (ELISA); assay type: in vivo, mouse
[1] = test system: choroidal endothelial cells (CEC); assay: Cell cycle distribution of CEC after laser injury (flow cytometry, propidium iodide); conditions: mouse, in vivo
Protocol: Flow cytometry. Single cell suspensions isolated from mouse RPE/choroids via collagenase D (20 U/ml; Roche Diagnostics) treatment were incubated in Fc block (0.5 mg/ml; BD Pharmingen) for 15 min on ice. Rabbit antibody to mouse VEGFR-1 (1:250; Santa Cruz) coupled with Cy5-donkey antibody to rabbit IgG Ab (1:250) and Phycoerythrin-conjugated rat antibody to mouse VEGFR-2 (1:250; eBioscience) were used to quantitate cell surface receptor expression. Macrophages defined as F4/80^+CD11c^− cells, were gated by rat antibody to mouse Cy5-F4/80 (1:30; Serotec) and hamster antibody to mouse FITC-CD11c (1:100; Serotec), CEC by FITC-conjugated rat antibody to mouse CD31 (1:250; BD Biosciences), and RPE cells by FITC-conjugated mouse antibody to human pan-cytokeratin (1:250; Sigma-Aldrich) staining following fixation with 4% paraformaldehyde and permeabilization with 1% Triton X-100 (Sigma Aldrich) and subjected to FACS analysis (FACSCalibur, BD Biosciences). DNA content was analyzed following incubation with propidium iodide (0.05 mg/ml; Molecular Probes) containing 0.1% Triton X-100 and RNase A (0.1 mg/ml; Roche).

[2] = test system: bone marrow derived endothelial cells (BMDECs); assay: Bone marrow derived endothelial cell incorporation in GFP chimeric mice (flow cytometry); assay type: in vivo, mouse; conditions: 0.55 ng
Source text: We tested the effect of VEGF-A164 injection one day after laser injury in GFP chimeric mice 8 weeks following bone marrow transplantation in mice with engraftment exceeding 90%. In the RPE/choroid, GFP^+ cells were identified only at the site of laser injury and the immediate vicinity (data not shown). The bulk (>60%) of GFP^+ cells in the RPE/choroid following injury expressed either CD11b or F4/80, markers of monocytic lineage, while nearly all (>95%) CD11b^+ and F4/80^+ cells expressed GFP. […] The vast majority (>90%) of GFP^+CD31^+ cells, both in PBS- and VEGF-A164-treated eyes, also expressed CD11b or F4/80.
(§1) Flow cytometry. Single cell suspensions isolated from mouse RPE/choroids via collagenase D (20 U/ml; Roche Diagnostics) treatment were incubated in Fc block (0.5 mg/ml; BD Pharmingen) for 15 min on ice. Rabbit antibody to mouse VEGFR-1 (1:250; Santa Cruz) coupled with Cy5-donkey antibody to rabbit IgG Ab (1:250) and Phycoerythrin-conjugated rat antibody to mouse VEGFR-2 (1:250; eBioscience) were used to quantitate cell surface receptor expression. […] DNA content was analyzed following incubation with propidium iodide (0.05 mg/ml; Molecular Probes) containing 0.1% Triton X-100 and RNase A (0.1 mg/ml; Roche).

VEGFR-1 = VEGFR-1 (Homo sapiens, UniProt P17948); conditions: cited from earlier work
Chain of VEGFR-1 (P17948 27-1338, species assumed): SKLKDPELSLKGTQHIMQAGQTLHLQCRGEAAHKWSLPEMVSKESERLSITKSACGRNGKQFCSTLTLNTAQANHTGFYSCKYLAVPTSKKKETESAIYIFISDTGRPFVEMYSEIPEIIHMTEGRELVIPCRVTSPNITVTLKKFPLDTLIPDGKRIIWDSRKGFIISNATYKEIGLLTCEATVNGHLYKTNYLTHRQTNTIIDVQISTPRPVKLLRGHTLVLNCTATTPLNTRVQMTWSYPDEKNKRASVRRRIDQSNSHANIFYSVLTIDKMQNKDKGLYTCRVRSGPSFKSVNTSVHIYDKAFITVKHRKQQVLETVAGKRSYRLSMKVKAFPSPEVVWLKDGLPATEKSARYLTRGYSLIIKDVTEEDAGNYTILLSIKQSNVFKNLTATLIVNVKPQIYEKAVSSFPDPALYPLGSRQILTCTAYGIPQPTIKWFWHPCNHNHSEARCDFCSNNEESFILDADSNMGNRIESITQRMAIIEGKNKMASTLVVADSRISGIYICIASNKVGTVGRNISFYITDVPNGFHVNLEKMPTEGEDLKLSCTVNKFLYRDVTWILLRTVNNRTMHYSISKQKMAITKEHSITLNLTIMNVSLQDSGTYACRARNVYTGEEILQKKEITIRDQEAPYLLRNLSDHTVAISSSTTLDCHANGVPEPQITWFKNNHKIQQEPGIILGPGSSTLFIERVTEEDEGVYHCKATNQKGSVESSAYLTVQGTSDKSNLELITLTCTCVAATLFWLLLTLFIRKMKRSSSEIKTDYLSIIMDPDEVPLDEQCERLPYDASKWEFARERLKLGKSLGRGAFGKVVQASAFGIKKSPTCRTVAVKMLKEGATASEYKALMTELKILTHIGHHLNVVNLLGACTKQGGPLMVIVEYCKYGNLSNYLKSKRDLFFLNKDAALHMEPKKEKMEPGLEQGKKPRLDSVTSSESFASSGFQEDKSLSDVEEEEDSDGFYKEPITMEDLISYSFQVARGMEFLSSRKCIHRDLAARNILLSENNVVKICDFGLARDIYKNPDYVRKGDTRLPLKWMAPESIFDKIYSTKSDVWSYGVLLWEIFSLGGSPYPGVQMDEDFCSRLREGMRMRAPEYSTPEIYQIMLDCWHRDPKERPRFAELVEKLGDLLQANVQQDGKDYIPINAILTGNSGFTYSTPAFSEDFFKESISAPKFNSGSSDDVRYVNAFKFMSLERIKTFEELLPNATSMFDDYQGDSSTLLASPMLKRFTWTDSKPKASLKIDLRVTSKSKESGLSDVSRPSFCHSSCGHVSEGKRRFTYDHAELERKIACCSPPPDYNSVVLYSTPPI

choroidal macrophages = assay: Choroidal macrophage recruitment after laser injury (flow cytometry); assay type: in vivo, mouse
Protocol: Drug treatments. VEGF-A164 (4-12 ng), VEGF-A120 (2.7-27 ng), PLGF-1 (12.5-1,250 ng), mouse PLGF-2 (165-1,650 ng), mouse Ccl-2 (0.55 ng), neutralizing goat antibodies to mouse VEGF-A (5-20 ng), mouse VEGFR-1 (6-18 μg), mouse VEGFR-2 (25-250 ng), or rat NP-1 (200-500 ng; all R&D Systems), recombinant human SPARC (100-300 ng; purified in the laboratory of E. H. Sage) or neutralizing mouse antibody to human SPARC (4-12 μg; purified in the laboratory R. W. Brekken, University of Texas), neutralizing rabbit antibody to rat NP-2 (200-500 ng; gifts of D. D. Ginty, Johns Hopkins University and S. Niclou, Netherlands Institute for Brain Research (Shearer, M. C. et al. The astrocyte/meningeal cell interface is a barrier to neurite outgrowth which can be overcome by manipulation of inhibitory molecules or axonal signalling pathways. […]
as §1, with “Single cell suspensions isolated from mouse RPE/choroids via collagenase D (20 U/ml; Roche Diagnostics) treatment were incubated in Fc block (0.5 mg/ml; BD Pharmingen) for 15 min on ice.” left out

c-kit = c-kit (Homo sapiens, UniProt P10721); conditions: cited from earlier work
Chain of c-kit (P10721 26-976): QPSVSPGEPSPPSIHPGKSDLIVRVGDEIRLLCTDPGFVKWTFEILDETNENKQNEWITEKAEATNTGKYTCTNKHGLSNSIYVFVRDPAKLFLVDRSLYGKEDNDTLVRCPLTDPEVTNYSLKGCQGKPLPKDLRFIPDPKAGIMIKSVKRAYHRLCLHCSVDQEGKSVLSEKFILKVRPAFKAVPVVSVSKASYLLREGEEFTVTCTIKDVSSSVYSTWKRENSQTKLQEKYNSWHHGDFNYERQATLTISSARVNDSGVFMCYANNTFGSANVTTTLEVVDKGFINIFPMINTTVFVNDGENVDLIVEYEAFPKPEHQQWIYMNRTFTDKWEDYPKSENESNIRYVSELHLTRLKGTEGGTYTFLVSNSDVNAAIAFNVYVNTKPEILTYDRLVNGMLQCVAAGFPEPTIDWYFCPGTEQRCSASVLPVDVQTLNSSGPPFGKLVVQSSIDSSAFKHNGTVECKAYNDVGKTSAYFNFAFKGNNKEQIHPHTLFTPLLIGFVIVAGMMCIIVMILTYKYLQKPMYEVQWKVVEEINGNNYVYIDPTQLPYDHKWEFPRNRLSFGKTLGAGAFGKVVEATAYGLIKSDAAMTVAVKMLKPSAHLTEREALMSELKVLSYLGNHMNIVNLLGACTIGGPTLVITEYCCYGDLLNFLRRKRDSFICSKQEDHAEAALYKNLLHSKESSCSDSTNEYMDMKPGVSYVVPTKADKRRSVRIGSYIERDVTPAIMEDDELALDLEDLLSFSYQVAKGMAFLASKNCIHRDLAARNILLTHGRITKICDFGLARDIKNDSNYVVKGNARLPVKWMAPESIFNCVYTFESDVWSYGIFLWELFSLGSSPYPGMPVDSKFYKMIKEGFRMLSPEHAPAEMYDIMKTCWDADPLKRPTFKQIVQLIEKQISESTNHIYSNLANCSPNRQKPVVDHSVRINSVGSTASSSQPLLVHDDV

flt3 = conditions: read-out: IC50 flt3; cited from earlier work
[3] = test system: platelet derived growth factor receptor (PDGFR); conditions: cited from earlier work
VEGF-A = conditions: mouse, in vivo
[4] = agent alone, intravitreous, immediately or one day after laser injury, wild-type mice, vs PBS

Molecule: O.O.O.O.O.O.O.O.O.O=C([O-])[C@@H]1[O][Sb]2([O-])([O][Sb]34([OH])[O][C@H]([C@H](O)CO)[C@H]([O]3)[C@H](C(=O)[O-])[O]4)[O][C@H]([C@H](O)CO)[C@@H]1[O]2.[Na+].[Na+].[Na+] [sodium stibogluconate]
- effect on VEGF-A-induced suppression of CNV (laser-induced CNV): abolished

Molecule: C=CC1=C(C)c2cc3[n-]c(cc4[n-]c(cc5nc(cc1n2)C(C)=C5C=C)c(C)c4CCC(=O)O)c(CCC(=O)O)c3C.[Zn+2] [ZnPP, zinc protoporphyrin IX]
- effect on VEGF-A-induced suppression of Ccl-2 (Ccl-2): abolished
- effect on VEGF-A-induced suppression of CNV (laser-induced CNV): abolished
- effect on VEGF-A-induced G0/G1 arrest of CEC [1]: reversed

Molecule: Ccl-2: exogenous recombinant Ccl-2, monocyte chemoattractant
- effect on VEGF-A164 reduction in vasculogenesis [2]: abrogated
- effect on clodronate liposome reduction of BMDEC incorporation [2]: did not abrogate
- effect on CNV inhibited by VEGF-A antibody (laser-induced CNV; 0.55 ng): restored the CNV
- volume of CNV (laser-induced CNV; Ccl2−/− or Ccr2−/− mice): restores CNV
- volume of CNV (laser-induced CNV; Ccl2−/− or Ccr2−/− mice, listed as Recombinant Ccl-2): restored CNV
- effect on VEGF-A-induced suppression of CNV (laser-induced CNV): abrogates
- effect on VEGF-A-induced suppression of CNV (laser-induced CNV; listed as recombinant Ccl-2): abrogated

Molecule: CC(C)c1cc(/C=C(\C#N)C(=O)NCCCc2ccccc2)cc(C(C)C)c1O [SU1498, (E)-3-(3,5-diisopropyl-4-hydroxyphenyl)-2-[(3-phenyl-n-propyl)amino-carbonyl]acrylonitrile]
- effect on VEGF-E-induced increase in CNV (laser-induced CNV; after laser injury): blocked

Molecule: OB(O)c1cccc(NCc2cc(O)ccc2O)c1 [DBAPBA]
- effect on VEGF-A-induced suppression of Ccl-2 (Ccl-2): blocked
- effect on VEGF-A-induced suppression of CNV (laser-induced CNV): blocked; also recorded: reversed by DBAPBA in a dose-dependent fashion
- IC50 (VEGFR-1): 40000 nM
- effect on VEGF-A-induced suppression of monocyte recruitment (choroidal macrophages): blocked

Molecule: Cc1cc2ncc(-c3ccccc3)nc2cc1C [AG1295, 6,7-dimethyl-2-phenylquinoxaline]
- effect on VEGF-A-induced suppression of CNV (laser-induced CNV): Neither AG1295 (15 ng) nor PHA665752 (0.4 ng) blocked
- IC50 (c-kit): 1800 nM
- IC50 (flt3): 500 nM
- IC50 [3]: 400 nM

Molecule: Cc1occc(=O)c1[O-].Cc1occc(=O)c1[O-].[O]=[V+2] [BMOV, bis(maltolato)oxovanadium(IV)]
- effect on VEGF-A-induced suppression of CNV (laser-induced CNV): abrogated

Molecule: OO [H2O2]
- volume of CNV (laser-induced CNV; [4]): decreased the volume of CNV; also recorded: inhibited

Molecule: FGF-2: basic fibroblast growth factor, another potent angiogenic cytokine
- volume of CNV (laser-induced CNV; [4]): did not evoke similar responses; also recorded: minor increases

Molecule: Cc1cc(C)c(C=C2C(=O)Nc3ccccc32)[nH]1 [SU5416, 3-((2,4-dimethylpyrrol-5-yl)methylidene]-indolin-2-one]
- effect on VEGF-A-induced suppression of Ccl-2 (Ccl-2): blocked
- effect on VEGF-A-induced suppression of CNV (laser-induced CNV): blocked; also recorded: abrogates
- effect on VEGF-A-induced suppression of monocyte recruitment (choroidal macrophages): blocked

Molecule: Cc1[nH]c(/C=C2\C(=O)Nc3ccc(S(=O)(=O)Cc4c(Cl)cccc4Cl)cc32)c(C)c1C(=O)N1CCC[C@@H]1CN1CCCC1 [PHA665752]
- effect on VEGF-A-induced suppression of CNV (laser-induced CNV): Neither AG1295 (15 ng) nor PHA665752 (0.4 ng) blocked

Molecule: COC(=O)[C@@H](N)CCCNC(=N)N[N+](=O)[O-] [L-NAME, N^ω-nitro-L-arginine methyl ester]
- effect on VEGF-A-induced suppression of CNV (laser-induced CNV): did not reverse; also recorded: not affected

Molecule: [Cl-].[Cl-].[Co+2] [CoCl2]
- aggregate VEGF-A exposure (area under the curve) higher than after laser injury alone (VEGF-A): 52%
- peak VEGF-A in RPE and choroid relative to maximal level following laser injury alone (VEGF-A): less than double

B1: SPARC: recombinant human SPARC, secreted protein, acidic, rich in cysteine (protein, UniProt P09486 18-303, looked up)
SPARC: APQQEALPDETEVVEETVAEVTEVSVGANPVQVEVGEFDDGAEETEEEVVAENPCQNHHCKHGKVCELDENNTPMCVCQDPTSCPAPIGEFEKVCSNDNKTFDSSCHFFATKCTLEGTKKGHKLHLDYIGPCKYIPPCLDSELTEFPLRMRDWLKNVLVTLYERDEDNNLLTEKQKLRVKKIHENEKRLEAGDHPVELLARDFEKNYNMYIFPVHWQFGQLDQHPIDGYLSHTELAPLRAPLIPMEHCTTRFFETCDLDNDKYIALDEWAGCFGIKQKDIDKDLVI
- volume of CNV (laser-induced CNV; [4]): did not alter CNV
- effect on VEGF-A-induced suppression of CNV (laser-induced CNV): abolished
- effect on VEGF-A-induced suppression of CNV (laser-induced CNV; listed as recombinant human SPARC): dose-dependently abolished
- inhibition of VEGFR-1 kinase activity (VEGFR-1; in vitro, literature): inhibits the kinase activity of VEGFR-1
